# Measured values taken from US5223526A, “Pyrazole carboxanilide fungicides and use” (Monsanto Company, priority 1992, dated 1993).
# Key:
# [1] = tested on: Botrytis cinerea; assay: Eggplant grey mold; format: in vivo; design: scale not given here; conditions: inoculated 24 h later, rated after 3-4 days; for Disease Control Rating at 20 ppm: eggplant sprayed with 20 ppm; for Disease Control Rating at 100 ppm: eggplant sprayed with 100 ppm; for Disease Control Rating at 500 ppm: eggplant sprayed with 500 ppm
# In short: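 Protective test: compound formulations (2:3 acetone:water, 0.5% Tween 20; 500, 100 or 20 ppm) sprayed on 14-18-day-old plants, with spore inoculum (4×10^6 spore/mL) applied a day later. Disease control rated on Botrytis lesions after 3-4 days at 23 °C and 100% humidity.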
# [2] = molecular target: T1, succinate dehydrogenase (Botrytis cinerea, UniProt A0A384J5E4+A0A384J8V8+A0A384JHJ5); assay: Enzyme inhibition: succinate dehydrogenase activity in Botrytis cinerea mitochondria (DCPIP reduction); format: biochemical; conditions: concentration required to inhibit the rate of DCPIP reduction by 50%; Botrytis cinerea isolate Nick mitochondria; read-out: I50 (μM conc.)
# T1 construct: succinate-DCPIP reductase assay with KCN
# T1 sequence (A0A384J5E4 1-300): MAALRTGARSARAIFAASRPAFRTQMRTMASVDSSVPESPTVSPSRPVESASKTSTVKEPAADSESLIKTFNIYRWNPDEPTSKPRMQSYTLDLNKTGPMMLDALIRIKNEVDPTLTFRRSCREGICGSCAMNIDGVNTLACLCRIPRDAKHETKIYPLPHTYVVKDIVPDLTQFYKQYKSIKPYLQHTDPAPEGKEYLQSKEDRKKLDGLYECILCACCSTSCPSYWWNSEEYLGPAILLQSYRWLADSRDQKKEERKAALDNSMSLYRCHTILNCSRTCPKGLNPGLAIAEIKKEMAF
# T1 sequence (A0A384J8V8 1-189): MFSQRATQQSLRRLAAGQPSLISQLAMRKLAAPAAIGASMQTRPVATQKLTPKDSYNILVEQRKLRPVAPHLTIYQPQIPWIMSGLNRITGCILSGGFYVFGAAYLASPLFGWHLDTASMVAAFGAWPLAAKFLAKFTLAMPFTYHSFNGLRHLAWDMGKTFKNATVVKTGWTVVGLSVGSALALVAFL
# T1 sequence (A0A384JHJ5 1-192): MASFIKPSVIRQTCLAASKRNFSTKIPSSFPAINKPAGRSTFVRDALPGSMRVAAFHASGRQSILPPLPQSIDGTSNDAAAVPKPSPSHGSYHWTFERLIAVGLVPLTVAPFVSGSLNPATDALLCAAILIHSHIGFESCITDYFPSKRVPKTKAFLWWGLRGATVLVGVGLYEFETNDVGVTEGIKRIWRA
# T1 sequence (A0A384K456 1-647 partner): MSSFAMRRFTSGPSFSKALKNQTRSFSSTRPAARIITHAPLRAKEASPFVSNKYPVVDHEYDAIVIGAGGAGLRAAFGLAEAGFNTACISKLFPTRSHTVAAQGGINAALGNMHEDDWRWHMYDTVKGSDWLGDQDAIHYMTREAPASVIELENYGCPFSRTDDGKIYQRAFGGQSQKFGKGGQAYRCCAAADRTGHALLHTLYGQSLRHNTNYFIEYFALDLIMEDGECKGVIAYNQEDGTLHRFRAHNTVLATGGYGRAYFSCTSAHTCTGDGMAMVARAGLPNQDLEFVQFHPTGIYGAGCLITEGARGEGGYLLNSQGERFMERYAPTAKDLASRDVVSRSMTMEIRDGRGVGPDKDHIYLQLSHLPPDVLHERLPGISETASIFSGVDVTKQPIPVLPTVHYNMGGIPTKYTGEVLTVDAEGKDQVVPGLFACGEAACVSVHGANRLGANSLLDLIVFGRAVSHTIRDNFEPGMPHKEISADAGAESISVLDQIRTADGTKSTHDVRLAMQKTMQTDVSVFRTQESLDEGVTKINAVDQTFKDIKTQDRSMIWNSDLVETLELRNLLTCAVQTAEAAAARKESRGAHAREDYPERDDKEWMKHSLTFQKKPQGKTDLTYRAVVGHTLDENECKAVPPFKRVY
# In short: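 Crude mitochondria from Botrytis cinerea isolate Nick mycelia, prepared by bead-beating and differential centrifugation, started reactions. SDH activity followed as DCPIP reduction at 600 nm in 50 mM K-phosphate pH 7.2 with 1 mM KCN, 45 μM DCPIP, 17 mM succinate, 1% acetone. I50 from semilog inhibition plots, corrected for succinate-free rates.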
# [3] = tested on: Rhizoctonia solani; assay: Rice sheath blight; format: in vivo; design: scale not given here; conditions: inoculated two days later, rated after 7 days, average of five plants; for Disease Control Rating at 0.02 mg/mL: foliage and soil sprayed with 0.02 mg/mL; for Disease Control Rating at 0.1 mg/mL: foliage and soil sprayed with 0.1 mg/mL; for Disease Control Rating at 0.5 mg/mL: foliage and soil sprayed with 0.5 mg/mL
# In short: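 Rice plants 11–15 days old had foliage and soil sprayed with 0.5, 0.1 or 0.02 mg/mL Compound A in water/acetone/Tween 20, then kept in flooded trays. Two days later, rice-grain Rhizoctonia solani inoculum went to plant bases; disease control scored versus untreated after 7 days at 25 °C, high humidity, averaging five plants.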
# [4] = tested on: Botrytis cinerea; assay: Vine grey mold (grape berries); format: in vivo; conditions: average of six berries, 7-10 days; for pest or weed control at 50 ppm: grape berries treated with 50 ppm, read-out: % DISEASE CONTROL 50 ppm; for pest or weed control at 200 ppm: grape berries treated with 200 ppm, read-out: % DISEASE CONTROL 200 ppm
# In short: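 Preventive berry test: compound at 50 or 200 ppm (acetone/water, 0.05% Tween 20) applied one day before inoculation with 10^6 spores/mL Botrytis conidia. After 7-10 days at 20 °C under 12 h light, infected surface area rated; disease control expressed as percent reduction from control mean; repeated-test values averaged.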
Structure (SMILES),Disease Control Rating at 20 ppm [1],Disease Control Rating at 100 ppm [1],Disease Control Rating at 500 ppm [1],IC50 [2] [µM],Disease Control Rating at 0.02 mg/mL [3],Disease Control Rating at 0.1 mg/mL [3],Disease Control Rating at 0.5 mg/mL [3],pest or weed control at 50 ppm [4] [%],pest or weed control at 200 ppm [4] [%]
"Cn1cc(C(=O)Nc2ccccc2C2CCCC2)c(Br)n1 [Example 64, 1H-pyrazole-4-carboxamide, 3-bromo-N-(2-cyclopentylphenyl)-1-methyl-]",1,1,2,0.047,1,3,3,10,28
"Cc1nn(C)c(C)c1C(=O)Nc1ccccc1C1CCCCCC1 [Example 66, 1H-pyrazole-4-carboxamide, N-(2-cycloheptylphenyl)-1,3,5-trimethyl-]",0,0,2,0.048,3,3,3,32,35
"Cn1cc(C(=O)Nc2ccccc2C2(C)CCCC2)c(C(F)(F)F)n1 [Example 67, 1H-pyrazole-4-carboxamide, 1-methyl-N-[2-(1-methylcyclopentyl)phenyl]-3-(trifluoromethyl)-]",0,1,2,0.056,,,2,31,0
"Cn1cc(C(=O)Nc2ccccc2C2CCCCCCC2)c(I)n1 [Example 68, 1H-pyrazole-4-carboxamide, N-(2-cyclooctylphenyl)-3-iodo-1-methy1-]",,,1,0.0037,2,3,3,78,89
"Cn1cc(C(=O)Nc2ccccc2C2CCCC2)c(I)n1 [Example 69, 1H-pyrazole-4-carboxamide, N-(2-cyclopentylphenyl)-3-iodo-1-methy1-]",,,0,0.033,0,2,3,30,70
"Cn1cc(C(=O)Nc2ccccc2O[C@H]2CC[C@@H](C)CC2)c(C(F)(F)F)n1 [Example 72, 1H-pyrazole-4-carboxamide, 1-methyl-N-[2-[(4-methylcyclohexyl)oxy]phenyl]-3-(trifluoromethyl)-, cis-]",,,0,0.031,,,0,0,0
"Cn1cc(C(=O)Nc2ccccc2O[C@H]2CC[C@H](C)CC2)c(C(F)(F)F)n1 [Example 73, 1H-pyrazole-4-carboxamide, 1-methyl-N-[2-[(4-methylcyclohexyl)oxy]phenyl]-3-(trifluoromethyl)-, trans-]",,,0,0.0076,,,2,8,0
"C[C@@H]1CCC[C@H](C)[C@@H]1Oc1ccccc1NC(=O)c1cn(C)nc1C(F)(F)F [Example 74, 1H-pyrazole-4-carboxamide, 1-methyl-N-[2-[(2,6-dimethylcyclohexyl)oxy]phenyl]-3-(trifluoromethyl)-, (lalpha,2alpha,6alpha)-]",0,0,1,0.09,,,0,4,0
"C[C@@H]1CCC[C@H](C)[C@H]1Oc1ccccc1NC(=O)c1cn(C)nc1C(F)(F)F [Example 76, 1H-pyrazole-4-Carboxamide, 1 methyl-N-[2-[(2,6-dimethylcyclohexyl)oxy]phenyl]-3-(trifluoromethyl)-, (1alpha,2beta,6beta)-]",,,0,0.032,,,0,8,0
"Cn1cc(C(=S)Nc2ccccc2C2CCCCC2)c(C(F)F)n1 [Example 77, 1H-pyrazole-4-carbothioamide, N-(2-cyclohexylphenyl)-3-(difluoromethyl)-1-methyl]",0,1,2,22,,,0,85,82
"Cn1cc(C(=S)Nc2ccccc2C2CCCCCC2)c(C(F)(F)F)n1 [Example 78, 1H-pyrazole-4-carbothioamide, N-(2-cycloheptylphenyl)-3-(trifluoromethyl)-1-methyl]",1,1,2,8.7,,,0,35,35
"Cn1cc(C(=O)Nc2ccccc2C2(C)CCCC2)c(C(F)F)n1 [Example 83, 1H-pyrazole-4-carboxamide, 3-(difluoromethyl)-1-methyl-N-[2-(1-methylcyclopentyl)phenyl]-]",0,0,2,0.13,3,3,3,56,55
"Cn1nc(C(F)(F)F)c(C(=O)Nc2ccccc2C2CCCCC2)c1F [Example 84, 1H-pyrazole-4-carboxamide, N-(2-cyclohexylphenyl)-5-fluoro-1-methyl-3-(trifluoromethyl)-]",0,1,2,0.013,,,0,93,96
"Cn1nc(C(F)(F)F)c(C(=O)Nc2ccccc2C2CCCCCC2)c1F [Example 86, 1H-pyrazole-4-carboxamide, N-(2-cycloheptylphenyl)-5-fluoro-1-methyl-3-(trifluoromethyl)-]",,,0,0.0063,3,3,3,66,82
"Cn1nc(C(F)(F)F)c(C(=O)Nc2ccccc2C2CCCCC2)c1Cl [Example 87, 1H-pyrazole-4-carboxamide, 5-chloro-N-(2-cyclohexylphenyl)-1-methyl-3-(trifluoromethyl)-]",,,0,0.059,,,2,61,46
"Cn1nc(C(F)(F)F)c(C(=O)Nc2ccccc2C2CCCCCC2)c1Cl [Example 89, 1H-pyrazole-4-carboxamide, 5-chloro-N-(2-cycloheptylphenyl)-1-methyl-3-(trifluoromethyl)-]",,,0,0.021,,,0,24,13
"Cn1cc(C(=O)Nc2ccccc2C2CCCC2)c(C(F)(F)Cl)n1 [Example 90, 1H-pyrazole-4-carboxamide, 3-(chlorodifluoromethyl)-N-(2-cyclopentylphenyl)-1-methyl-]",0,0,0,0.79,,,0,0,33
"Cn1cc(C(=O)Nc2ccccc2C2CCCCCC2)c(C(F)(F)Cl)n1 [Example 92, 1H-pyrazole-4-carboxamide, 3-(chlorodifluoromethyl)-N-(2-cycloheptylphenyl)-1-methyl-]",,,0,0.062,0,1,2,36,30
